Assay results as given in ChEMBL document CHEMBL1129417, “Glucose transport-enhancing and hypoglycemic activity of 2-methyl-2-phenoxy-3-phenylpropanoic acids” (1996).
Values joined by “and” are separate entries in the source; they are usually repeats but may differ in a detail not shown here. Identical values can stand only once.

Legend:
Format in all cases: functional
[1] = test system: Mus musculus; experiment: In vivo hypoglycemic activity expressed as glucose lowering relative to positive control in 6-8 week old C57BL/6J ob/ob mouse at 10 mg/kg
[2] = organism: Rattus norvegicus; experiment: Inhibition of gluconeogenesis in rat
[3] = test system: Mus musculus; experiment: In vivo hypoglycemic activity expressed as glucose lowering relative to positive control in 6-8 week old C57BL/6J ob/ob mouse at 1 mg/kg.
[4] = test system: Mus musculus; experiment: In vivo hypoglycemic activity expressed as glucose lowering relative to positive control in 6-8 week old C57BL/6J ob/ob mouse at 5 mg/kg.
[5] = test system: 3T3-L1; experiment: In vitro measurements of 2-Deoxyglucose (2DG) uptake in vehicle treated 3T3-L1 adipocytes at 60 uM dose.
[6] = test system: 3T3-L1; experiment: Acute effects in vitro by measuring 2-deoxyglucose (2DG) uptake in vehicle treated 3T3-L1 adipocytes at 30 uM dose.
[7] = test system: 3T3-L1; experiment: Acute effects in vitro by measuring 2-deoxyglucose (2DG) uptake in vehicle treated 3T3-L1 adipocytes at 10 uM dose.
[8] = test system: 3T3-L1; experiment: In vitro by measurements of 2-Deoxyglucose (2DG) uptake in vehicle treated 3T3-L1 adipocytes at 3 uM dose.
[9] = test system: Mus musculus; experiment: compound was tested in vivo for hypoglycemic activity expressed as Glucose lowering relative to positive control in 6-8 week old C57BL/6J ob/ob mouse at 50 mg/kg
[10] = test system: 3T3-L1; experiment: In vitro measurements 2-Deoxyglucose (2DG) uptake in vehicle treated 3T3-L1 adipocytes at 100 uM dose.
[11] = Rattus norvegicus, read-out: ED50

Compound | Hypoglycemic activity [1] [%] | ED50 [2, 11] [mg/kg] | Hypoglycemic activity [4] [%] | Basal uptake [6] | Basal uptake [7] [%] | also measured
CCc1ccc(CC(C)(Oc2ccc(Cc3ccccc3)cc2)C(=O)[O-])cc1.[Na+] (stereo not given) | 107 | 1 | 104 | – | – | Hypoglycemic activity [3]: 44%
CC(Cc1ccc(Cl)cc1)(Oc1ccc(Cc2ccccc2)cc1)C(=O)[O-].[Na+] (stereo not given) | 96 | 1 | 100 | 109% | – | Basal uptake [5]: 214%; Hypoglycemic activity [3]: 44%
Cc1cc(C)c(CC(C)(Oc2ccc(C(C)C)cc2)C(=O)[O-])c(C)c1.[Na+] (stereo not given) | 77 | < 10 | – | 106% | 148 | Basal uptake [5]: 173%
CC(C)c1ccc(OC(C)(COP(=O)([O-])[O-])Cc2ccc(Cl)cc2)cc1.[Ca+2] (stereo not given) | 50 | > 10 | – | – | – | –
CC(C)c1ccc(OC(C)(Cc2ccc3ccccc3c2)C(=O)O)cc1 (stereo not given) | 46 | > 10 | – | – | – | –
COc1ccc(S(=O)(=O)NC(=O)C(C)(Oc2ccc(C(C)C)cc2)C(C)c2ccc(Cl)cc2)cc1 (stereo not given) | 16 | > 10 | – | 162% | 113 | Basal uptake [8]: 130%
CCc1ccc(CC(C)(Oc2ccc(C(C)C)cc2)C(=O)NS(=O)(=O)C(F)(F)F)cc1 (stereo not given) | 27 | > 10 | – | – | – | –
CC(C)c1ccc(OC(C)(Cc2ccc3c(c2)CCCC3)C(=O)[O-])cc1.[Na+] (stereo not given) | 99 | < 5 | 75 | – | – | –
CC(C)c1ccc(OC(C)(Cc2ccc(C(C)(C)C)cc2)C(=O)O)cc1 (stereo not given) | 102 | 5 | 47 | 213% and 103% | 104 | Hypoglycemic activity [3]: 41%
CC(C)C1CCC(OC(C)(Cc2ccc(Cl)cc2)C(=O)[O-])CC1.[Na+] (stereo not given) | <0 | > 10 | – | – | – | –
Cc1ccc(S(=O)(=O)C(Cc2ccc(Cl)cc2)C(=O)O)cc1 (stereo not given) | – | > 50 | – | – | – | Basal uptake [5]: 89%; Hypoglycemic activity [9]: <0%
CC(C)c1ccc(OC(C)(Cc2ccc(Cl)cc2)c2nnn[nH]2)cc1 (stereo not given) | <0 | 10 | – | 159% and 105% | 105 | –
CC(Cc1ccc(Cl)cc1)(Oc1ccc(Oc2ccccc2)cc1)C(=O)O (stereo not given) | 108 | < 1 | 100 | – | – | Hypoglycemic activity [3]: 60%
CCc1cccc(CC(C)(Oc2ccc(C3CCSc4ccccc43)cc2)C(=O)[O-])c1.[Na+] (stereo not given) | 35 | > 10 | – | – | 113 | Basal uptake [8]: 116% and 104%
CC(C)c1ccc(OC(C)(Cc2ccc(Cl)c(Cl)c2)C(=O)O)cc1 (stereo not given) | 111 | 5 | 24 | – | – | Hypoglycemic activity [3]: 0%
COc1ccc(CC(C)(Oc2ccc(C(C)C)cc2)C(=O)O)cc1 (stereo not given) | 41 | > 10 | – | – | – | –
CC(C)c1ccc2c(c1)CC(Cc1ccc(Cl)cc1)(C(=O)O)O2 (stereo not given) | – | > 50 | – | – | – | Basal uptake [5]: 66%; Hypoglycemic activity [9]: <0%
CCCc1ccc(CC(C)(Oc2ccc(C(C)C)cc2)C(=O)NS(=O)(=O)C(F)(F)F)cc1 (stereo not given) | 35 | > 10 | – | – | – | –
CC(C)c1ccc(OC(C)(Cc2ccc(Cl)cc2)C(=O)/N=C(\N)NO)cc1 (stereo not given) | 49 | 10 | 44 | – | – | Hypoglycemic activity [3]: <0%
CC(C)c1ccc(OC(C)(CO)Cc2ccc(Cl)cc2)cc1 (stereo not given) | <0 | 10 | – | 118% | 121 | Basal uptake [8]: 118%
Cc1ccc(CC(C)(Oc2ccc(C(C)C)cc2)C(=O)[O-])cc1.[Na+] (stereo not given) | 106 | < 1 | 100 | – | – | Basal uptake [10]: 92%; Hypoglycemic activity [3]: 58%
Cc1cccc(CC(C)(Oc2ccc(C(C)C)cc2)C(=O)[O-])c1.[Na+] (stereo not given) | 83 | < 1 | 83 | 84% | 98 | Basal uptake [8]: 93%; Hypoglycemic activity [3]: 63%
COc1ccc(Cc2ccc(OC(C)(Cc3ccc(Cl)cc3)C(=O)[O-])cc2)cc1.[Na+] (stereo not given) | 74 | < 10 | – | – | – | –
CC(Cc1ccc(Cl)cc1)(Oc1ccc(C2CCSCC2)cc1)C(=O)[O-].[Na+] (stereo not given) | 64 | < 10 | – | – | – | Basal uptake [5]: 108%

Compound | Hypoglycemic activity [1] [%] | ED50 [2, 11] [mg/kg] | Hypoglycemic activity [4] [%] | Basal uptake [6] | Basal uptake [7] [%] | also measured
COc1ccccc1CC(Oc1ccc(C(C)C)cc1)C(=O)O (stereo not given) | <0 | > 10 | – | – | – | Basal uptake [5]: 78%
CC(Cc1ccc(Cl)cc1)(Oc1ccc(Br)cc1)C(=O)O (stereo not given) | 22 | < 1 | – | 134% | 109 | Basal uptake [8]: 120%
CC(C)c1ccc(OC(C)(Cc2ccc(Cl)cc2)C(=O)NS(C)(=O)=O)cc1 (stereo not given) | – | 5 | 0 | 255% | 100 | Basal uptake [5]: 200%; Hypoglycemic activity ([1]; 10 mg/kg): 96% and 100%
COc1ccc(Cl)cc1C(=O)NCCc1ccc(CC(C)(Oc2ccc(C(C)C)cc2)C(=O)O)cc1 (stereo not given) | 24 | > 10 | – | – | – | –
CC(C)c1ccc(OC(C(=O)O)C(C)c2ccc(Cl)cc2)cc1 (stereo not given) | 17 | > 10 | – | – | – | Basal uptake [5]: 111%
Cc1ccccc1S(=O)(=O)NC(=O)C(C)(Cc1ccc(Cl)cc1)Oc1ccc(C(C)C)cc1 (stereo not given) | <0 | > 10 | – | 232% and 126% | 251 | –
CC(C)c1ccc(OC(C)(Cc2ccc(Cl)cc2)C(=N)NO)cc1 (stereo not given) | 27 | > 10 | – | – | – | –
CCc1ccc(CC(C)(Oc2ccc(Oc3ccccc3)cc2)C(=O)O)cc1 (stereo not given) | 130 | 1 | 113 | – | – | Hypoglycemic activity [3]: 48%
CC(C)c1ccc(OC(C)(Cc2ccc(Cl)cc2)C(=O)CO)cc1 (stereo not given) | 32 | > 10 | – | – | – | –
CC(Cc1ccc(Cl)cc1)(Oc1ccc(Cc2ccc(Cl)cc2)cc1)C(=O)[O-].[Na+] (stereo not given) | <0 | > 10 | – | 112% and 90% | 94 | –
CCCCc1ccc(CC(C)(Oc2ccc(C(C)C)cc2)C(=O)[O-])cc1.[Na+] (stereo not given) | 130 | 1 | 92 | 200% | 94 | Basal uptake [8]: 82%; Hypoglycemic activity [3]: 17%
CCC(Cc1ccc(Cl)cc1)(Oc1ccc(C(C)C)cc1)C(=O)[O-].[Na+] (stereo not given) | – | > 5 | 36 | – | – | Basal uptake [10]: 156%
CC(C)c1ccc2c(c1)C(c1ccc(Cl)cc1)C(C(=O)O)O2 (stereo not given) | – | > 50 | – | – | – | Basal uptake [5]: 89%; Hypoglycemic activity [9]: 25%
COc1ccc(S(=O)(=O)NC(=O)C(C)(Cc2ccc(Cl)cc2)Oc2ccc(C(C)C)cc2)cc1 (stereo not given) | 22 | > 10 | – | 154% | 101 | Basal uptake [5]: 67%
CCCCc1cccc(CC(C)(Oc2ccc(C(C)C)cc2)C(=O)[O-])c1.[Na+] (stereo not given) | 91 | 1 | 85 | 113% | 129 | Hypoglycemic activity [3]: <0%
CC(Cc1ccc(Cl)cc1)(Oc1ccccc1Cc1ccc(Cl)cc1)C(=O)[O-].[Na+] (stereo not given) | 52 | 10 | – | 97% and 100% | 88 | –
CCCc1ccc(CC(C)(Oc2ccc(Cc3ccccc3)cc2)C(=O)[O-])cc1.[Na+] (stereo not given) | 96 | 1 | 91 | – | – | Hypoglycemic activity [3]: 24%
COc1ccccc1CC(C)(Oc1ccc(C(C)C)cc1)C(=O)O (stereo not given) | <0 | > 10 | – | 122% | 100 | Basal uptake [5]: 120%
CCc1ccccc1CC(C)(Oc1ccc(C(C)C)cc1)C(=O)[O-].[Na+] (stereo not given) | 95 | 5 | 53 | – | – | Hypoglycemic activity [3]: 32%
CC(C)c1ccc(OC(C(=O)[O-])C(C)c2ccc(Cl)cc2)cc1.[Na+] (stereo not given) | 41 | > 10 | – | – | – | Basal uptake [5]: 98%
CC(C)c1ccc(OC(C)(C(=O)O)C(C)c2ccc(Cl)cc2)cc1 (stereo in doubt; 85) | – | – | – | 131% | 128 | Basal uptake [5]: 209%; Hypoglycemic activity ([1]; 10 mg/kg): 46%; ED50 [2]: >10 mg/kg
CC(C)c1ccc(OC(C)(C(=O)O)C2CCc3cc(Cl)ccc32)cc1 (stereo in doubt; 100) | – | – | 78 | 89% | 83 | Hypoglycemic activity ([1]; 10 mg/kg): 105%; Basal uptake [8]: 85%; ED50 [2]: 1 mg/kg; Hypoglycemic activity [3]: 14%
CC(C)c1ccc(OC(C)(C(=O)O)C2CCc3cc(Cl)ccc32)cc1 (stereo in doubt; 101) | – | – | – | 85% | 86 | Hypoglycemic activity ([1]; 10 mg/kg): 35%; Basal uptake [8]: 71%; ED50 [2]: >10 mg/kg
